Source: patent publication US12486250B2, “Muscarinic receptor 4 antagonists and methods of use” (Neurocrine Biosciences, Inc., priority 2019, dated 2025)

Tests used:
Assay in all cases: Radioligand ([3H]N-methylscopolamine) binding assay, CHO cell membranes
human M2 receptor = target: T1, human M2 receptor (Homo sapiens, UniProt P08172); details: 1.5 nM tritiated N-methylscopolamine, 90 minutes at 37° C.; read-out: Binding affinity (Ki) M2
T1 construct: expressed in transfected cells; host or cells: CHO cells
T1 sequence (P08172 1-466): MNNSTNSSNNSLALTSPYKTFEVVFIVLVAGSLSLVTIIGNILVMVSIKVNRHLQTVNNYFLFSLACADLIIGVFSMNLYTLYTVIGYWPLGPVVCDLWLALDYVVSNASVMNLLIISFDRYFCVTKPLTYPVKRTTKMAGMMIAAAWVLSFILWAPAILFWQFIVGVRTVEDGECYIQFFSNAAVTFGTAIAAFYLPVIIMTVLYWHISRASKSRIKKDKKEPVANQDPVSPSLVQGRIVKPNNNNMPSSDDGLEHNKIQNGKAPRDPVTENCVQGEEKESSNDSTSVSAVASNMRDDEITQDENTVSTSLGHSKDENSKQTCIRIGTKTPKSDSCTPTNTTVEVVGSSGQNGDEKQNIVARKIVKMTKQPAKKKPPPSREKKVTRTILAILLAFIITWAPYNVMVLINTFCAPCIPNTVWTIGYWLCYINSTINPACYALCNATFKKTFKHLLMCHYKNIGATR
Procedure: (§1) Binding affinity (Ki) of compounds was measured by inhibition of radioligand binding to membranes from CHO cells expressing human M1, M2, M3, M4 and M5 receptors. Membranes were prepared by nitrogen cavitation and differential centrifugation as previously described (Hoare et al., Mol. Pharmacol. 2003 March; 63(3): 751-65). The radioligand employed was tritiated N-methylscopolamine, used at a concentration of 1.5 nM. A dose-response of twelve concentrations of compound was used, ranging from […]. The assay buffer was 50 mM HEPES, 100 mM NaCl, 5 mM MgCl2, 1 mM ethylenediaminetetraacetic acid, pH-adjusted to pH 7.4. Membranes, radioligand and compound were incubated together for 90 minutes at 37° C., in a total volume of 150 μL in a 96-well plate. Receptor-bound radioligand was then collected by harvesting the assay over glass fiber filters pretreated with polyethylenimine to trap the cell membranes, using rapid vacuum filtration. Harvesting and radioactivity counting was conducted as previously described (see, e.g., Hoare et al., Mol. Pharmacol. 2003 63(3):751-65); Erratum at Mol. Pharmacol. 2005 July; 68(1): 260).

human M5 receptor = target: T2, human M5 receptor (Homo sapiens, UniProt P08912); details: 1.5 nM tritiated N-methylscopolamine, 90 minutes at 37° C.; read-out: Binding affinity (Ki) M5
T2 construct: expressed in transfected cells; host or cells: CHO cells
T2 sequence (P08912 1-532): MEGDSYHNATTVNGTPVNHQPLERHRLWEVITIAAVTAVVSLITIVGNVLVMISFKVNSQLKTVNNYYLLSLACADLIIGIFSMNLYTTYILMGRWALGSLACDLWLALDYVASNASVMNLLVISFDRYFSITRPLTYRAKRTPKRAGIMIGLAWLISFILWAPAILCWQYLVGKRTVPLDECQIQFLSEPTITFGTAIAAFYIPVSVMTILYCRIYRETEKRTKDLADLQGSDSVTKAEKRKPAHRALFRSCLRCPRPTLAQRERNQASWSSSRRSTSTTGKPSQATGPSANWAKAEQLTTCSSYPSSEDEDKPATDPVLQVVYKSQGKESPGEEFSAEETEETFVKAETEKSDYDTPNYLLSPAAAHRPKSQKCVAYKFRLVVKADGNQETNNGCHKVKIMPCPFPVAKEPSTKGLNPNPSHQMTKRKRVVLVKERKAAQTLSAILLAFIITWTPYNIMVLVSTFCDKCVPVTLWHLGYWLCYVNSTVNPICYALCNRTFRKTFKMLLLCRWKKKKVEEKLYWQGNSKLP
Procedure: as §1

human M1 receptor = target: T3, human M1 receptor (Homo sapiens, UniProt P11229); details: 1.5 nM tritiated N-methylscopolamine, 90 minutes at 37° C.; read-out: Binding affinity (Ki) M1
T3 construct: expressed in transfected cells; host or cells: CHO cells
T3 sequence (P11229 1-460): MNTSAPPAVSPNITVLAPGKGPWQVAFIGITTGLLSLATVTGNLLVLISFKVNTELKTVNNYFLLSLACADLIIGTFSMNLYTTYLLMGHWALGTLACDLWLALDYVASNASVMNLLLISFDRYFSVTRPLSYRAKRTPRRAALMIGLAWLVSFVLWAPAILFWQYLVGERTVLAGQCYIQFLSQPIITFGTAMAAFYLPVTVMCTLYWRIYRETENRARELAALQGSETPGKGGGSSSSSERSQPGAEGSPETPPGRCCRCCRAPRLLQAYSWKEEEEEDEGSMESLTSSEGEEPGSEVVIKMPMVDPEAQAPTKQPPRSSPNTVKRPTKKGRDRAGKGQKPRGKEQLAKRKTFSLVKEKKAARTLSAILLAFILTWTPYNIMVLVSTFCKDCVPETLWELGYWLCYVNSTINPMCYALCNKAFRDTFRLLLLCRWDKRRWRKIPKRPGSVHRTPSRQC
Procedure: as §1

human M3 receptor = target: T4, human M3 receptor (Homo sapiens, UniProt P20309); details: 1.5 nM tritiated N-methylscopolamine, 90 minutes at 37° C.; read-out: Binding affinity (Ki) M3
T4 construct: expressed in transfected cells; host or cells: CHO cells
Procedure: as §1

human M4 receptor = target: T5, human M4 receptor (Homo sapiens, UniProt P08173); details: 1.5 nM tritiated N-methylscopolamine, 90 minutes at 37° C.; read-out: Binding affinity (Ki) M4
T5 construct: expressed in transfected cells; host or cells: CHO cells
T5 sequence (P08173 1-479): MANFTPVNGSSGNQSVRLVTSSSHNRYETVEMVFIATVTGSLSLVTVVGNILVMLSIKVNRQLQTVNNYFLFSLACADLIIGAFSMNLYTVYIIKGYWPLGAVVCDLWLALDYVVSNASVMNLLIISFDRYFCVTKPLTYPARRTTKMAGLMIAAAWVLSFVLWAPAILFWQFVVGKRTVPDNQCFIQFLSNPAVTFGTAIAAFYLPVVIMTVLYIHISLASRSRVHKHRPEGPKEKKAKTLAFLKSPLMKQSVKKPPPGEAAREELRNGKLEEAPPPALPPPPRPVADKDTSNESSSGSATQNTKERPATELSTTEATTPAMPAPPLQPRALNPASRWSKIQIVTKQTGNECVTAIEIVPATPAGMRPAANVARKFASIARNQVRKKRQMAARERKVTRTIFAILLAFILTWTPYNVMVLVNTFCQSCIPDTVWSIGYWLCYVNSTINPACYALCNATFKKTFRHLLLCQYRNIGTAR
Procedure: as §1

T4 sequence (P20309 whole entry): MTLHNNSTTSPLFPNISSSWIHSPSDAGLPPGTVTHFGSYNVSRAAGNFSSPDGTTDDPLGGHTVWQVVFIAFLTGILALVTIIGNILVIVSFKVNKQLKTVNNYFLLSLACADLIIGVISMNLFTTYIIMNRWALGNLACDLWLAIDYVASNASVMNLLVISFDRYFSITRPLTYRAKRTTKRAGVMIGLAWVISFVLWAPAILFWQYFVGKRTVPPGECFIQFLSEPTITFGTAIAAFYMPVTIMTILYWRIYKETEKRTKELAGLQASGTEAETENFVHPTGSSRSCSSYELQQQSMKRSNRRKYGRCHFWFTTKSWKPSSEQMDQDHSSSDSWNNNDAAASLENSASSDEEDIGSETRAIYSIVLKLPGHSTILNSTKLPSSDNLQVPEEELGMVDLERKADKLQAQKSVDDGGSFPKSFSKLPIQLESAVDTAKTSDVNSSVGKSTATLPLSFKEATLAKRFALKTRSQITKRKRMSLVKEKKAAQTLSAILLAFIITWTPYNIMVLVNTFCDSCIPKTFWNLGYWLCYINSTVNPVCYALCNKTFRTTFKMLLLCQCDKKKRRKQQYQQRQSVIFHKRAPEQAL

Row | Compound | Ki (human M2 receptor) [nM] | Ki (human M5 receptor) [nM] | Ki (human M1 receptor) [nM] | Ki (human M3 receptor) [nM] | Ki (human M4 receptor) [nM]
1 | C[C@@H]1CN(c2cnc(C(F)(F)F)cn2)C[C@H](C)N1C(=O)OCCC1CCN(Cc2ccccc2)CC1 [Compound 1, 2-(1-benzylpiperidin-4-yl)ethyl (2R,6S)-2,6-dimethyl-4-[5-(trifluoromethyl)pyrazin-2-yl]piperazine-1-carboxylate] | 1860 | ≥ 1000 | ≥ 1000 | ≥ 1000 | 1.8
2 | C[C@@H]1CN(c2cnc(C(F)(F)F)cn2)C[C@@H](C)N1C(=O)OCCC1CCN(Cc2ccccc2)CC1 [Compound 2, 2-(1-benzylpiperidin-4-yl)ethyl (2R,6R)-2,6-dimethyl-4-[5-(trifluoromethyl)pyrazin-2-yl]piperazine-1-carboxylate] | 271 | ≥ 1000 | ≥ 1000 | ≥ 1000 | 4
3 | C[C@@H]1CN(c2ncc(C#N)cn2)C[C@H](C)N1C(=O)NCCC1CCN(Cc2ccccc2)CC1 [Compound 3A] | 520 |  |  |  | 3
4 | C[C@@H]1CN(c2cnc(C(F)(F)F)cn2)C[C@@H](C)N1C(=O)NCCC1CCN(Cc2ccccc2)CC1 [Compound 4A] | 665 |  |  |  | 5
